Literature values as cited in patent US20260295002A1, “GASTROINTESTINAL RETENTIVE FORMULATIONS OF ECHINOCANDINS” (The Cleveland Clinic Foundation, priority 2023, published 2026).
Structures can show the parent of a compound that is named as a salt.

Settings: background statement

| oral bioavailability | SMILES |
| --- | --- |
| poor oral bioavailability | CCC(C)CC(C)CCCCCCCCC(=O)N[C@H]1C[C@@H](O)[C@@H](NCCN)NC(=O)[C@@H]2[C@@H](O)CCN2C(=O)[C@H]([C@H](O)CCN)NC(=O)[C@H]([C@H](O)[C@@H](O)c2ccc(O)cc2)NC(=O)[C@@H]2C[C@@H](O)CN2C(=O)[C@H]([C@@H](C)O)NC1=O (some centres unmarked) [Caspofungin] |
| poor oral bioavailability | CC[C@H](C)C[C@H](C)CCCCCCCCC(=O)N[C@H]1C[C@@H](O)[C@@H](NCCN)NC(=O)[C@@H]2[C@@H](O)CCN2C(=O)[C@H]([C@H](O)CCN)NC(=O)[C@H]([C@H](O)[C@@H](O)c2ccc(O)cc2)NC(=O)[C@@H]2C[C@@H](O)CN2C(=O)[C@H]([C@@H](C)O)NC1=O [caspofungin acetate, 1-[(4R,5S)-5-[(2-aminoethyl)amino]-N2-(10,12-dimethyl-1-oxotetradecyl)-4-hydroxy-L-ornithine]-5-[(3R)-3-hydroxy-L-ornithine]pneumocandin B0 diacetate (salt)] |
